Laboratory results from paper PMC3907505, “The Mechanism of Intralipid®-Mediated Cardioprotection Complex IV Inhibition by the Active Metabolite, Palmitoylcarnitine, Generates Reactive Oxygen Species and Activates Reperfusion Injury Salvage Kinases” (PLoS ONE, 2014).

Target: T1, Complex IV (cytochrome c oxidase) (Rattus norvegicus, UniProt P00406+P05503)
T1 construct: gene Mt-co1; native complex in saponin-permeabilized left ventricular (apex) cardiac fibers; dimer of 13 subunits per monomer; with Cytochrome c oxidase subunit 3; Cytochrome c oxidase subunit 4 isoform 1, mitochondrial; Cytochrome c oxidase subunit 5A, mitochondrial; Cytochrome c oxidase subunit 5B, mitochondrial; Cytochrome c oxidase subunit 6A2, mitochondrial; Cytochrome c oxidase subunit 6B1; Cytochrome c oxidase subunit 6C; Cytochrome c oxidase subunit 7A1, mitochondrial; Cytochrome c oxidase subunit 7B, mitochondrial; Cytochrome c oxidase subunit 7C, mitochondrial; Cytochrome c oxidase subunit 8B, mitochondrial
Assay: high-resolution respirometry (O2 consumption), permeabilized cardiac fibers
Format: biochemical
Settings: ascorbate 2 mM/TMPD 0.5 mM as complex IV substrates, pH 7.1, 30°C, 1 g/l BSA in medium
Text: high-resolution respirometry (O2 consumption), permeabilized cardiac fibers on Complex IV (cytochrome c oxidase)

CCCCCCCCCCCCCCCC(=O)O[C@H](CC(=O)[O-])C[N+](C)(C)C [C16∶0c, Palmitoylcarnitine]
IC50 (Hillslope −0.86): 72.3 µM

CCCCC/C=C\C/C=C\CCCCCCCC(=O)O[C@H](CC(=O)[O-])C[N+](C)(C)C [C18∶2c, cis,cis-9,12-octadecadienoyl-L-carnitine]
IC50 (Hillslope −1.58): 65.6 µM
